Reference: patent publication US6737383B1, “Herbicidal oxadiazolidines” (priority 1999, dated 2004)

What was measured:
rice = test: Test B flood test rice; format: in vivo, Oryza sativa; conditions: Pre-emergence
Summary of the method: (§1)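 Read-out is a visual response score from 0 (no effect) to 10 (complete control), assigned by comparison with untreated controls. Treatment was applied at the 2-leaf stage, and plants stayed in the greenhouse for twelve to sixteen days before scoring.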

surinam grass = test: Test B pre/postemergence surinam grass; format: in vivo, Brachiaria decumbens
Summary of the method: (§2)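 Test chemicals in a non-phytotoxic solvent mixture with surfactant were sprayed preemergence onto planted seeds and postemergence onto plants 2 to 18 cm tall (1- to 4-leaf stage). After twelve to sixteen days in a greenhouse, injury was visually rated against untreated controls from 0 (no effect) to 10 (complete control).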

purple nutsedge = test: Test B pre/postemergence purple nutsedge; format: in vivo, Cyperus rotundus
Summary of the method: as §2

blackgrass = test: Test B pre/postemergence blackgrass; format: in vivo, Alopecurus myosuroides
Summary of the method: as §2

smallflower flatsedge = test: Test B flood test smallflower flatsedge; format: in vivo, Cyperus difformis; conditions: Pre-emergence
Summary of the method: as §1

giant foxtail = test: Test B pre/postemergence giant foxtail; format: in vivo, Setaria faberii
Summary of the method: as §2

bamyardgrass = test: Test B flood test barnyardgrass; format: in vivo, Echinochloa crus-galli; conditions: Pre-emergence
Summary of the method: as §1

wild oat = test: Test B pre/postemergence wild oat; format: in vivo, Avena fatua
Summary of the method: as §2

cocklebur = test: Test B pre/postemergence cocklebur; format: in vivo, Xanthium strumarium
Summary of the method: as §2

pigweed = test: Test B pre/postemergence pigweed; format: in vivo, Amaranthus retroflexus
Summary of the method: as §2

wheat = test: Test B pre/postemergence wheat; format: in vivo, Triticum aestivum
Summary of the method: as §2

bedstraw = test: Test B pre/postemergence bedstraw; format: in vivo, Galium aparine
Summary of the method: as §2

velvetleaf = test: Test B pre/postemergence velvetleaf; format: in vivo, Abutilon theophrasti
Summary of the method: as §2

soybean = test: Test B pre/postemergence soybean; format: in vivo, Glycine max
Summary of the method: as §2

morningglory = test: Test B pre/postemergence morningglory; format: in vivo, Ipomoea hederacea
Summary of the method: as §2

crabgrass = test: Test B pre/postemergence crabgrass; format: in vivo, Digitaria sanguinalis
Summary of the method: as §2

[1] = Rate 1000 g/ha, scale 0 to 10 (0 no effect, 10 complete control)
[2] = Rate 125 g/ha, flood test species, scale 0 to 10 where 0 is no effect and 10 is complete control
[3] = Rate 250 g/ha, flood-test species, scale 0 to 10, 0 is no effect, 10 is complete control
[4] = Rate 500 g/ha, flood test species, scale 0 to 10 (0 no effect, 10 complete control)
[5] = Postemergence, Rate 1000 g/ha, scale 0 to 10 (0 no effect, 10 complete control)
[6] = Preemergence, Rate 250 g/ha, scale of 0 to 10 where 0 is no effect and 10 is complete control
[7] = Preemergence, Rate 500 g/ha, scale of 0 to 10 where 0 is no effect and 10 is complete control
[8] = Rate 125 g/ha, Postemergence, scale of 0 to 10 where 0 is no effect and 10 is complete control
[9] = Rate 250 g/ha, Postemergence, scale of 0 to 10 where 0 is no effect and 10 is complete control
[10] = Rate 500 g/ha, Postemergence, scale 0 to 10, 0 no effect, 10 complete control
[11] = Rate 1000 g/ha, Preemergence, scale 0 to 10 (0 no effect, 10 complete control)

CCOC(=O)C(C)N(C(=O)n1oc(=O)n(C(C)C)c1=O)c1ccc(F)cc1 (centres unmarked) [Compound 302]
7: Plant response rating, B. signalgrass (surinam grass; [11]) | Giant foxtail plant response rating (giant foxtail; [5]) | Giant foxtail plant response rating (giant foxtail; [6]) | Crabgrass plant response rating (crabgrass; [7]) | Plant response rating, Crabgrass (crabgrass; [11])
5: Blackgrass plant response rating (blackgrass; [7]) | Wild oats plant response rating (wild oat; [7]) | Soybean plant response rating (soybean; [5])
10: Plant response rating, Giant foxtail (giant foxtail; [11])
9: Giant foxtail plant response rating (giant foxtail; [7])
6: Blackgrass plant response rating (blackgrass; [5]) | Plant response rating, Blackgrass (blackgrass; [11]) | Giant foxtail plant response rating (0 to 10 scale) (giant foxtail; Preemergence, Rate 125 g/ha) | Plant response rating, Wild oats (wild oat; [11])
4: Plant response rating, Velvetleaf (velvetleaf; [11])
0: Rice plant response rating (rice; [1]) | Rice plant response rating (rice; [2]) | Rice plant response rating (rice; [3]) | Rice plant response rating (rice; [4]) | B. signalgrass plant response rating (surinam grass; [5]) | B. signalgrass plant response rating (0 to 10 scale, 0 is no effect, 10 is complete control) (surinam grass; Preemergence, Rate 125 g/ha) | B. signalgrass plant response rating (surinam grass; [6]) | B. signalgrass plant response rating (surinam grass; [8]) | Plant response rating, B. signalgrass (surinam grass; [9]) | B. signalgrass plant response rating (surinam grass; [10]) | Nutsedge plant response rating (purple nutsedge; [5]) | Nutsedge plant response rating (0 to 10 scale) (purple nutsedge; Preemergence, Rate 125 g/ha) | Nutsedge plant response rating (purple nutsedge; [6]) | Nutsedge plant response rating (purple nutsedge; [7]) | Nutsedge plant response rating (purple nutsedge; [8]) | Plant response rating, Nutsedge (purple nutsedge; [9]) | Plant response rating, Nutsedge (purple nutsedge; [11]) | Blackgrass plant response rating (0 to 10 scale) (blackgrass; Preemergence, Rate 125 g/ha) | Blackgrass plant response rating (blackgrass; [8]) | Plant response rating, Blackgrass (blackgrass; [9]) | S. Flatsedge plant response rating (smallflower flatsedge; [1]) | S. Flatsedge plant response rating (smallflower flatsedge; [2]) | S. Flatsedge plant response rating (smallflower flatsedge; [3]) | S. Flatsedge plant response rating (smallflower flatsedge; [4]) | Barnyardgrass plant response rating (bamyardgrass; [1]) | Barnyardgrass plant response rating (bamyardgrass; [2]) | Barnyardgrass plant response rating (bamyardgrass; [3]) | Barnyardgrass plant response rating (bamyardgrass; [4]) | Wild oats plant response rating (wild oat; [5]) | Wild oats plant response rating (0 to 10 scale) (wild oat; Preemergence, Rate 125 g/ha) | Wild oats plant response rating (wild oat; [8]) | Plant response rating, Wild oats (wild oat; [9]) | Cocklebur plant response rating (cocklebur; [5]) | Cocklebur plant response rating (0 to 10 scale) (cocklebur; Preemergence, Rate 125 g/ha) | Cocklebur plant response rating (cocklebur; [6]) | Cocklebur plant response rating (cocklebur; [7]) | Cocklebur plant response rating (cocklebur; [8]) | Plant response rating, Cocklebur (cocklebur; [9]) | Cocklebur plant response rating (cocklebur; [10]) | Plant response rating, Cocklebur (cocklebur; [11]) | Redroot pigweed plant response rating (0 to 10 scale) (pigweed; Preemergence, Rate 125 g/ha) | Redroot pigweed plant response rating (pigweed; [6]) | Redroot pigweed plant response rating (pigweed; [7]) | Wheat plant response rating (0 to 10 scale) (wheat; Preemergence, Rate 125 g/ha) | Wheat plant response rating (wheat; [6]) | Wheat plant response rating (wheat; [7]) | Wheat plant response rating (wheat; [8]) | Plant response rating, Wheat (wheat; [9]) | Plant response rating, Wheat (wheat; [11]) | Bedstraw plant response rating (bedstraw; [5]) | Bedstraw plant response rating (0 to 10 scale) (bedstraw; Preemergence, Rate 125 g/ha) | Bedstraw plant response rating (bedstraw; [6]) | Bedstraw plant response rating (bedstraw; [7]) | Bedstraw plant response rating (bedstraw; [8]) | Plant response rating, Bedstraw (bedstraw; [9]) | Bedstraw plant response rating (bedstraw; [10]) | Plant response rating, Bedstraw (bedstraw; [11]) | Velvetleaf plant response rating (velvetleaf; [5]) | Velvetleaf plant response rating (0 to 10 scale) (velvetleaf; Preemergence, Rate 125 g/ha) | Velvetleaf plant response rating (velvetleaf; [6]) | Velvetleaf plant response rating (velvetleaf; [7]) | Velvetleaf plant response rating (velvetleaf; [8]) | Plant response rating, Velvetleaf (velvetleaf; [9]) | Soybean plant response rating (0 to 10 scale) (soybean; Preemergence, Rate 125 g/ha) | Soybean plant response rating (soybean; [6]) | Soybean plant response rating (soybean; [7]) | Plant response rating, Soybean (soybean; [11]) | Morningglory plant response rating (0 to 10 scale) (morningglory; Preemergence, Rate 125 g/ha) | Morningglory plant response rating (morningglory; [6]) | Morningglory plant response rating (morningglory; [7]) | Plant response rating, Morningglory (morningglory; [11]) | Crabgrass plant response rating (0 to 10 scale) (crabgrass; Preemergence, Rate 125 g/ha) | Crabgrass plant response rating (crabgrass; [8]) | Plant response rating, Crabgrass (crabgrass; [9])
3: B. signalgrass plant response rating (surinam grass; [7]) | Redroot pigweed plant response rating (pigweed; [5]) | Plant response rating, Redroot pigweed (pigweed; [11]) | Plant response rating, Soybean (soybean; [9])
1: Giant foxtail plant response rating (giant foxtail; [8]) | Redroot pigweed plant response rating (pigweed; [8]) | Wheat plant response rating (wheat; [5]) | Morningglory plant response rating (morningglory; [8]) | Crabgrass plant response rating (crabgrass; [5])
2: Blackgrass plant response rating (blackgrass; [6]) | Blackgrass plant response rating (blackgrass; [10]) | Plant response rating, Giant foxtail (giant foxtail; [9]) | Wild oats plant response rating (wild oat; [6]) | Plant response rating, Redroot pigweed (pigweed; [9]) | Soybean plant response rating (soybean; [8]) | Morningglory plant response rating (morningglory; [5]) | Plant response rating, Morningglory (morningglory; [9]) | Crabgrass plant response rating (crabgrass; [6])
